Laboratory results reported in patent US20110124634A1, “BIOACTIVE COMPOUNDS FOR TREATMENT OF CANCER AND NEURODEGENERATIVE DISEASES” (PONIARD PHARMACEUTICALS, INC., priority 2008, published 2011).

What was measured:
Type in all cases: cell-based
SKBR-3 = test: MTS assay (cytotoxicity), growth inhibition of SKBR-3; details: Homo sapiens, SK-BR-3, 120 h, Table 5, series III, 5 days, read-out: Growth Inhibition (IC50) SKBR-3
Protocol: (§1) Cells were seeded in 96-well plates at 2000 cells/well in a final culture volume of 100 ul for 24 hours before the addition of 25 ul of increasing concentrations of inhibitors that was incubated for 5 days. Viable cell number was determined using the CellTiter 96 AQueous One Solution Cell Proliferation Assay (Promega). Plates were read at 490 nm absorbance 2-4 hours after addition of the MTS reagent using a multiwell plate spectrophotometer. Background was determined by measuring the Abs 490 nm of cell culture medium and MTS in the absence of cells. The background value was subtracted from all values. Absorbance 490 nm values for each inhibitor were plotted against the log 10 inhibitor concentration, and IC50 values were calculated using a nonlinear least-square curve fitting program in Prism 5.

HT29 = test: MTS assay (cytotoxicity), growth inhibition of HT29; details: Homo sapiens, HT-29, 120 h, Table 5, series III, 5 days, read-out: Growth Inhibition (IC50) HT29
Protocol: as §1

BT474 = test: MTS assay (cytotoxicity), growth inhibition of BT474; details: Homo sapiens, BT-474, 120 h, Table 5, series III, 5 days, read-out: Growth Inhibition (IC50) BT474
Protocol: as §1

MCF-7 = test: MTS assay (cytotoxicity), growth inhibition of MCF-7; details: Homo sapiens, MCF7, 120 h, Table 5, series III, 5 days, read-out: Growth Inhibition (IC50) MCF-7
Protocol: as §1

[1] = tested on: HSP90 client protein Her2 in SKBR-3 cells; test: Her-2 degradation assay (Her-2 ELISA) in SKBr-3 cells; details: Homo sapiens, SK-BR-3, Table 5, series III, 18 hours
Protocol: Most of the compounds synthesized were evaluated for their ability to induce degradation of the HSP90 client protein Her2 in SKBR-3 cells. Selected compounds were evaluated in a fluorescence polarization (FP) assay for their affinity to HSP90.
SKBr-3 cells grown in McCoy's 5a Medium supplemented with 10% fetal bovine serum (FBS) were plated into 12-well plates at 50% confluency. Increasing concentrations of inhibitors were added 24 hours later (cells are 65-70% confluent) and incubated overnight for 18 hours. The wells were washed with 2 ml of phosphate buffered saline (PBS), and 50 ul of trypsin was added to each well. After trypsinization was complete, 150 ul of FBS was added to each well. Then 200 ul of cells were transferred to 96-well plates and plates were centrifuged at 1200 rpm for 2 minutes using a tabletop centrifuge. The cells were washed once with 250 ul PBS before being lysed with 100 ul of 50 mM Tris (pH 7.4), 0.1% NP-40 lysis buffer. Protein concentrations of clarified lysates were determined using the BCA Assay (Calbiochem) according to the manufacturer's instructions. 2 ug of each lysate was analyzed in the human sp 185 Her-2 ELISA (Bender Medsystems) according to the manufacturer's instructions. ELISA plates were read at 450 nm using a multiwell plate spectrophotometer. Background was determined by measuring the Abs 450 nm of wells with no lysate added. The background value was subtracted from all values. Absorbance 450 nm values for each inhibitor were plotted against the log 10 inhibitor concentration, and IC50 values were calculated using a nonlinear least-square curve fitting program in Prism 5.

Structure (SMILES) | IC50 (SKBR-3) [nM] | IC50 (HT29) [nM] | IC50 (BT474) [nM] | IC50 (MCF-7) [nM] | IC50 [1] [nM]
COc1c(C)cnc(CN2C(=O)/C(=C\c3[nH]cnc3C)c3c(Cl)nc(N)nc32)c1C [III-4, 2-Amino-4-chloro-7-(4-methoxy-3,5-dimethyl-pyridin-2-ylmethyl)-5-[1-(5-methyl-3H-imidazol-4-yl)-meth-(Z)-ylidene]-5,7-dihydro-pyrrolo[2,3-d]pyrimidin-6-one] | 160 | 120 | 190 | 530 | 340
COC(=O)c1ccc(/C=C2\C(=O)N(Cc3ncc(C)c(OC)c3C)c3nc(N)nc(Cl)c32)[nH]1 [III-5, 5-[2-Amino-4-chloro-7-(4-methoxy-3,5-dimethyl-pyridin-2-ylmethyl)-6-oxo-6,7-dihydro-pyrrolo[2,3-d]pyrimidin-(5Z)-ylidenemethyl]-1H-pyrrole-2-carboxylic acid methyl ester] | 230 | 560 | 210 | 960 | 480
COc1c(C)cnc(CN2C(=O)/C(=C\c3cc4c([nH]3)CCC=C4Cl)c3c(Cl)nc(N)nc32)c1C [III-7, 2-Amino-4-chloro-5-[1-(4-chloro-6,7-dihydro-1H-indol-2-yl)-meth-(Z)-ylidene]-7-(4-methoxy-3,5-dimethyl-pyridin-2-ylmethyl)-5,7-dihydro-pyrrolo[2,3-d]pyrimidin-6-one] | 5750 | 2010 | 4710 | 5430 | 6570
COc1c(C)cnc(CN2C(=O)/C(=C\c3ccc(C(=O)C(F)(F)F)[nH]3)c3c(Cl)nc(N)nc32)c1C [III-8, 2-Amino-4-chloro-7-(4-methoxy-3,5-dimethyl-pyridin-2-ylmethyl)-5-[1-[5-(2,2,2-trifluoro-acetyl)-1H-pyrrol-2-yl]-meth-(Z)-ylidene]-5,7-dihydro-pyrrolo[2,3-d]pyrimidin-6-one] | 150 | 1310 | 470 | 810 | 150
COc1c(C)cnc(CN2C(=O)/C(=C\c3[nH]ncc3Br)c3c(Cl)nc(N)nc32)c1C [III-10, (Z)-2-Amino-5-((4-bromo-1H-pyrazol-5-yl)methylene)-4-chloro-7-((4-methoxy-3,5-dimethylpyridin-2-yl)methyl)-5H-pyrrolo[2,3-d]pyrimidin-6(7H)-one] | 170 | 480 | 320 | 1270 | 280
COc1c(C)cnc(CN2C(=O)/C(=C\c3cc(Br)c[nH]3)c3c(Cl)nc(N)nc32)c1C [III-11, (Z)-2-Amino-5-((4-bromo-1H-pyrrol-2-yl)methylene)-4-chloro-7-((4-methoxy-3,5-dimethylpyridin-2-yl)methyl)-5H-pyrrolo[2,3-d]pyrimidin-6(7H)-one] | 140 | 380 | 430 | 1380 | 190
COc1c(C)cnc(CN2C(=O)/C(=C\c3cc(C(=O)NCCN4CCOCC4)c[nH]3)c3c(Cl)nc(N)nc32)c1C [III-16, (Z)-5-((2-Amino-4-chloro-7-((4-methoxy-3,5-dimethylpyridin-2-yl)methyl)-6-oxo-6,7-dihydro-5H-pyrrolo[2,3-d]pyrimidin-5-ylidene)methyl)-N-(2-morpholinoethyl)-1H-pyrrole-3-carboxamide] | 20 | 50 | 10 | 100 | 30
COc1c(C)cnc(CN2C(=O)/C(=C\c3cc(C(=O)NCCO)c[nH]3)c3c(Cl)nc(N)nc32)c1C [III-18, (Z)-5-((2-Amino-4-chloro-7-((4-methoxy-3,5-dimethylpyridin-2-yl)methyl)-6-oxo-6,7-dihydro-5H-pyrrolo[2,3-d]pyrimidin-5-ylidene)methyl)-N-(2-hydroxyethyl)-1H-pyrrole-3-carboxamide] | 30 | 110 | 30 | > 500 | 360
CCN(CC)CCNC(=O)c1c[nH]c(/C=C2\C(=O)N(Cc3ncc(C)c(OC)c3C)c3nc(N)nc(Cl)c32)c1 [III-19, (Z)-5-((2-Amino-4-chloro-7-((4-methoxy-3,5-dimethylpyridin-2-yl)methyl)-6-oxo-6,7-dihydro-5H-pyrrolo[2,3-d]pyrimidin-5-ylidene)methyl)-N-(2-(diethylamino)ethyl)-1H-pyrrole-3-carboxamide] | 1 | 10 | 0.7 | 70 | 10
COc1c(C)cnc(CN2C(=O)/C(=C\c3cc(C(=O)NCCNC(C)C)c[nH]3)c3c(Cl)nc(N)nc32)c1C [III-21, (Z)-5-((2-Amino-4-chloro-7-((4-methoxy-3,5-dimethylpyridin-2-yl)methyl)-6-oxo-6,7-dihydro-5H-pyrrolo[2,3-d]pyrimidin-5-ylidene)methyl)-N-(2-(isopropylamino)ethyl)-1H-pyrrole-3-carboxamide] | 4 | 60 | 10 | 150 | 60
COc1c(C)cnc(CN2C(=O)/C(=C\c3cc(C(=O)NCC(O)CO)c[nH]3)c3c(Cl)nc(N)nc32)c1C (stereo not drawn) [III-22, (Z)-5-((2-Amino-4-chloro-7-((4-methoxy-3,5-dimethylpyridin-2-yl)methyl)-6-oxo-6,7-dihydro-5H-pyrrolo[2,3-d]pyrimidin-5-ylidene)methyl)-N-(2,3-dihydroxypropyl)-1H-pyrrole-3-carboxamide] | 80 | 360 | 110 | 400 | 80
COc1c(C)cnc(CN2C(=O)/C(=C\c3cc(C(=O)NCCN4CCCC4)c[nH]3)c3c(Cl)nc(N)nc32)c1C [III-26, (Z)-5-((2-Amino-4-chloro-7-((4-methoxy-3,5-dimethylpyridin-2-yl)methyl)-6-oxo-6,7-dihydro-5H-pyrrolo[2,3-d]pyrimidin-5-ylidene)methyl)-N-(2-(pyrrolidin-1-yl)ethyl)-1H-pyrrole-3-carboxamide] | < 0.2 | 0.6 | 1 | 30 | 5
COc1c(C)cnc(CN2C(=O)/C(=C\c3cc(C(=O)N(CCO)CCO)c[nH]3)c3c(Cl)nc(N)nc32)c1C [III-27, (Z)-5-((2-Amino-4-chloro-7-((4-methoxy-3,5-dimethylpyridin-2-yl)methyl)-6-oxo-6,7-dihydro-5H-pyrrolo[2,3-d]pyrimidin-5-ylidene)methyl)-N,N-bis(2-hydroxyethyl)-1H-pyrrole-3-carboxamide] | 50 | 130 | 80 | 330 | 130
COc1c(C)cnc(CN2C(=O)/C(=C\c3cc(C(=O)NCCCN4CCCC4)c[nH]3)c3c(Cl)nc(N)nc32)c1C [III-28, (Z)-5-((2-Amino-4-chloro-7-((4-methoxy-3,5-dimethylpyridin-2-yl)methyl)-6-oxo-6,7-dihydro-5H-pyrrolo[2,3-d]pyrimidin-5-ylidene)methyl)-N-(3-(pyrrolidin-1-yl)propyl)-1H-pyrrole-3-carboxamide] | 40 | 50 | 20 | 890 | 110
COc1c(C)cnc(CN2C(=O)/C(=C\c3cc(C(=O)NCCN(CCO)CCO)c[nH]3)c3c(Cl)nc(N)nc32)c1C [III-30, (Z)-5-((2-Amino-4-chloro-7-((4-methoxy-3,5-dimethylpyridin-2-yl)methyl)-6-oxo-6,7-dihydro-5H-pyrrolo[2,3-d]pyrimidin-5-ylidene)methyl)-N-(2-(bis(2-hydroxyethyl)amino)ethyl)-1H-pyrrole-3-carboxamide] | 20 | 210 | 70 | 680 | 50
